Our source for the EC50 values is patent EP2128158A1, “Heterocyclic cyclopropyl-substituted FXR binding compounds” (Phenex Pharmaceuticals AG, priority 2008, dated 2009).

Where two headings read alike, the source gives them in different places.

Usually EC50 stands for the concentration needed to bring the measured effect to its halfway point.

One experiment has as its target T1, full length human FXR (Homo sapiens, UniProt Q96RI1).
T1 construct: The full length human FXR (NM_005123) was cloned into pTRexDest30; expressed in transfected cells
T1 sequence (Q96RI1 1-472 isoform Q96RI1-2): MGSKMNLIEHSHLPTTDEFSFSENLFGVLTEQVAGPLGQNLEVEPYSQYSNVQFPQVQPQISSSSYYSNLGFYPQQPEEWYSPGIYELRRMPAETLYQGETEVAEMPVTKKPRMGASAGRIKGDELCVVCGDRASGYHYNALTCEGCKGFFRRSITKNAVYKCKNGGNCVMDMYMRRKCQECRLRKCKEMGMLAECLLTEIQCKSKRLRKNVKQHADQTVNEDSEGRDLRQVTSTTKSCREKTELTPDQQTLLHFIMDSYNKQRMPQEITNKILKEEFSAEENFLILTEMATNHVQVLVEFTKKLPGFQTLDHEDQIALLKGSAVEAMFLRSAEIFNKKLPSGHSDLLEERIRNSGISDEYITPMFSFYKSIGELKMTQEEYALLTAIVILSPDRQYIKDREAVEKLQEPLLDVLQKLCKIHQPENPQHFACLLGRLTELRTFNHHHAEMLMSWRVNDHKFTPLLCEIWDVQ
Nature of the experiment: Direct reporter (DR) gene assay in stably transfected HEK293 cells (D2IV3), luciferase. The format is cell-based. The source says: In the direct reporter gene assay, HEK293 cells, obtained from DSMZ (German Collection of Microorganisms and Cell Cultures, Braunschweig, Germany) were stably transfected with pTRexDest30 (Invitrogen) derivative pTRexDest30-hFXR and pGL2promoter (Promega) derivative pGL2promoter-2xIBABP-RE. The full length human FXR (NM_005123) was cloned into pTRexDest30 according to the manufacturer protocol for the Gateway system (Invitrogen). The FXR response elements cccaGGGTGAaTAACCTcggggctctgtccctccaatcccaGGGTGAaTAACCTcggg were derived from the human IBABP-P promoter (Grober et al. 1999, JBC, 174, pp.29749-29754) and cloned into pGL2promoter. […] For the direct reporter gene assays, D2IV3 cells were grown in MEM with L-Glutamine and Earle's BSS supplemented with 10% fetal bovine serum, 0.1mM nonessential amino acids, 1mM sodium pyruvate, and 100units Penicilin/[…] per ml at 37°C in 5% CO2. Medium and supplements were obtained from Invitrogen. For the assay, 5x10^5 cells were plated per well in 96well plates in 100µl per well minimum essential medium (same composition as above) incubated at 37°C in 5% CO2. The following day the cells were >90% confluence. Compounds were prediluted in MEM and added at different concentrations to the cells with the final DMSO vehicle concentration not exceeding 0.1%. Cells were incubated for additional 16 hours before firefly luciferase activity was measured. All experiments were done in triplicates.

The target in experiment [1] is T2, human FXR alpha ligand binding domain (Homo sapiens, UniProt Q96RI1).
T2 construct: made in house; host or cells: E. coli BL21(DE3), vector pDEST15
T2 sequence (Q96RI1 187-472 isoform Q96RI1-2): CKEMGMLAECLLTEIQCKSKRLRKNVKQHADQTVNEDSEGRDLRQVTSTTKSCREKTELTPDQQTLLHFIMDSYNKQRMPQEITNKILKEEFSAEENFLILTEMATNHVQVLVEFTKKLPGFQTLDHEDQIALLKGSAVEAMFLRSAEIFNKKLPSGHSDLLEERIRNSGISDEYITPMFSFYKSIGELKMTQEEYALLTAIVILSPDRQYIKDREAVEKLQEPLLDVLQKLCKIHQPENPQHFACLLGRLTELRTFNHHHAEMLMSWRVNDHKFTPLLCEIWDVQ
Nature of the experiment: FRET activity assay (ligand mediated FXR-LBD / SRC-1 cofactor peptide interaction, LANCE). The format is biochemical. The procedure:
Determination of a ligand mediated cofactor peptide interaction to quantify ligand binding to the nuclear receptor FXR was performed as follows: Preparation of human FXR alpha ligand binding domain: The human FXRalpha LBD was expressed in E. coli strain BL21(DE3) as an N-terminally GST tagged fusion protein. The DNA encoding the FXR ligand binding domain was cloned into vector pDEST15 (Invitrogen). Expression was under control of an IPTG inducible T7 promoter. The amino acid boundaries of the ligand binding domain were amino acids 187-472 of Database entry NM_005123 (RefSeq). Expression and purification of the FXR-LBD:
An overnight preculture of a transformed E.coli strain was diluted 1:20 in LB-Ampicillin medium and grown at 30°C to an optical density of OD600=0.4-0.6. Gene expression was then induced by addition of 0.5 mM IPTG. Cells were incubated an additional 6h at 30°C, 180 rpm. Cells were collected by centrifugation (7000 x g, 7 min, room temperature). Per liter of original cell culture, cells were resuspended in 10 ml lysis buffer (50 mM Glucose, 50 mM Tris pH 7.9, 1 mM EDTA and 4 mg/ml lysozyme) and left on ice for 30 min. Cells were then subjected to sonication and cell debris removed via centrifugation (22000 x g, 30 min, 4°C). Per 10 ml of supernatant 0.5 ml prewashed Glutathione 4B sepharose slurry (Qiagen) was added and the suspension kept slowly rotating for 1 h at 4°C. Glutathione 4B sepharose beads were pelleted by centrifugation (2000 g, 15 sec, 4°C) and washed twice in wash buffer (25 mM Tris, 50mM KCl, 4 mM MgCl2 and 1M NaCl). The pellet was resuspended in 3 ml elution buffer per liter of original culture (elution buffer: 20 mM Tris, 60 mM KCI, 5 mM MgCl2 and 80 mM glutathione added immediately prior to use as powder). The suspension was left rotating for 15 min at 4°C, the beads pelleted and eluted again with half the volume of elution buffer than the first time. The eluates were pooled and dialysed overnight in 20 mM Hepes buffer (pH 7.5) containing 60 mM KCI, 5 mM MgCl2 as well as 1 mM dithiothreitol and 10% (v/v) glycerol. The protein was analysed by SDS-Page.
The method measures the ability of putative ligands to modulate the interaction between the purified bacterial expressed FXR ligand binding domain (LBD) and a synthetic biotinylated peptide based on residues 676-700 of SRC-1 (LCD2, 676-700). The sequence of the peptide used was B-[…]-COOH where the N-terminus was biotinylated (B). The ligand binding domain (LBD) of FXR was expressed as fusion protein with GST in BL-21 cells using the vector pDEST15. Cells were lysed by sonication, and the fusion proteins purified over glutathione sepharose (Pharmacia) according to the manufacturers instructions. […] For ease of handling and reduction of background from compound fluorescence LANCE technology makes use of generic fluorophore labels and time resolved detection Assays were done in a final volume of 2 5µl in a 384 well plate, in a Tris-based buffer (20 mM Tris-HCl pH 7,5; 60 mM KCI, 5 mM MgCl2; 35 ng/µl BSA), containing 20-60 ng/well recombinantly expressed FXR-LBD fused to GST, 200-600 nM N-terminally biotinylated peptide, representing SRC1 aminoacids 676-700, 200 ng/well Streptavidin-xIAPC conjugate(Prozyme) and 6-10 ng/well Eu W1024 - antiGST (Perkin Elmer). […] The LANCE signal was detected by a Perkin Elmer VICTOR2VTM Multilabel Counter The results were visualized by plotting the ratio between the emitted light at 665 nm and 615 nm. […]
On the technique in general: In TR-FRET formats the signal depends on donor and acceptor labels being close together.

Experiment [2] concerns the target T3, FXR ligand binding domain (Homo sapiens, UniProt Q96RI1).
T3 construct: expressed in transfected cells; host or cells: HEK293 (DSMZ), transient transfection, vector pCMV-BD
T3 sequence (Q96RI1 187-472 isoform Q96RI1-2): T2 sequence (Q96RI1 187-472 isoform Q96RI1-2)
Nature of the experiment: Mammalian one hybrid (M1H) assay, Gal4 promoter driven transactivation in HEK293 cells. The format is cell-based. Conditions: Gal4-FXR LBD, 16 hours incubation, dual luciferase, read-out: M1H assay EC50 (±sd). How it is done: Determination of a ligand mediated Gal4 promoter driven transactivation to quantify ligand binding mediated activation of FXR was performed as follows: The cDNA part encoding the FXR ligand binding domain was cloned into vector pCMV-BD (Stratagene) as a fusion to the yeast GAL4 DNA binding domain under the control of the CMV promoter. The amino acid boundaries of the ligand binding domain were amino acids 187-472 of Database entry NM_005123 (RefSeq). The plasmid pFR-Luc (Stratagene) was used as the reporter plasmid, containing a synthetic promoter with five tandem repeats of the yeast GAL4 binding sites, driving the expression of the Photinus pyralis (American firefly) luciferase gene as the reporter gene. In order to improve experimental accuracy the plasmid pRL-CMV (Promega) was cotransfected. pRL-CMV contains the constitutive CMV promoter, controlling the expression of the Renilla reniformis luciferase. All Gal4 reporter gene assays were done in HEK293 cells (obtained from DSMZ, Braunschweig, Germany) grown in MEM with L-Glutamine and Earle's BSS supplemented with 10% fetal bovine serum, 0.1 mM nonessential amino acids, 1mM sodium pyruvate, and 100units Penicilin/[…] per ml at 37°C in 5% CO2. Medium and supplements were obtained from Invitrogen. For the assay, 5x10^5 cells were plated per well in 96well plates in 100µl per well MEM without Phenol Red and L-Glutamine and with Earle's BSS supplemented with 10% charcoal/dextran treated FBS (HyClone, South Logan, Utah), 0.1 mM nonessential amino acids, 2 mM glutamine, 1 mM sodium pyruvate, and 100 units Penicilin/[…] per ml, incubated at 37 °C in 5% CO2. The following day the cells were >90% confluence. Medium was removed and cells were transiently transfected using 20µl per well of a OptiMEM - polyethylene-imine-based transfection-reagent (OptiMEM, Invitrogen; Polyethyleneimine, Aldrich Cat No. 40,827-7) including the three plasmids described above. MEM with the same composition as used for plating cells was added 2-4 hours after addition of transfection mixture. Then compound stocks, prediluted in MEM were added (final vehicle concentration not exceeding 0.1 %). Cells were incubated for additional 16 hours before firefly and renilla luciferase activities were measured sequentially in the same cell extract using a Dual-Light-Luciferase-Assay system (Dyer et al., Anal Biochem 2000, (282), 158-161). All experiments were done in triplicates.

Where [3] appears, read: 16 hours incubation, firefly luciferase, read-out: DR assay EC50 (±sd).
The mark [4] stands for this setting: GST-tagged FXR-LBD, biotinylated SRC-1 peptide 676-700; read-out: FRET assay EC50 (±sd).

Take `CC(C)c1onc(-c2c(Cl)cccc2Cl)c1COc1ccc(N(C)Cc2ccc(C(=O)O)cc2)c(C(F)(F)F)n1` [Compound B, 4-(((6-((3-(2,6-Dichlorophenyl)-5-isopropylisoxazol-4-yl)methoxy)-2-(trifluoromethyl)pyridin-3-yl)(methyl)amino)methyl)benzoic acid, reference compound]: the EC50 at full length human FXR (setting [3]) came out at 13 nM; in experiment [1] (setting [4]), 17 nM; in experiment [2] it was 95 nM.
For `CC(C)c1onc(-c2c(Cl)cccc2Cl)c1COc1ccc(N(C)Cc2cccc(C(=O)O)c2)c(C(F)(F)F)n1` [Compound C, 3-(((6-((3-(2,6-Dichlorophenyl)-5-isopropylisoxazol-4-yl)methoxy)-2-(trifluoromethyl)pyridin-3-yl)(methyl)amino)methyl)benzoic acid, reference compound] the same measures were 5.7 nM, 11 nM and 186 nM.
On to `CN(Cc1ccc(C(=O)O)cc1)c1ccc(OCc2c(-c3c(Cl)cccc3Cl)noc2C2CC2)nc1C(F)(F)F` [Example 1, 4-{[(6-((5-Cyclopropyl-3-(2,6-dichlorophenyl)isoxazol-4-yl)methoxy)-2-(trifluoromethyl)pyridin-3-yl)(methyl)amino]methyl}benzoic acid], for which the EC50 at full length human FXR (read-out: DR assay EC50 (±sd), 16 hours incubation, firefly luciferase) is 6.4 nM; in experiment [1] (read-out: FRET assay EC50 (±sd); GST-tagged FXR-LBD, biotinylated SRC-1 peptide 676-700) it was 8.4 nM; in experiment [2], 56 nM.
With `Cc1cc(CN(C)c2ccc(OCc3c(-c4c(Cl)cccc4Cl)noc3C3CC3)nc2C(F)(F)F)ccc1C(=O)O` [Example 2, 4-{[(6-((5-Cyclopropyl-3-(2,6-dichlorophenyl)isoxazol-4-yl)methoxy)-2-(trifluoromethyl)pyridin-3-yl)(methyl)amino]methyl}-2-methylbenzoic acid], the EC50 on full length human FXR (setting [3]) turned out to be 6 nM; in experiment [1] (setting [4]) it was 7.7 nM; in experiment [2] it was 40 nM.
The corresponding values for `Cc1cc(CN(C)c2ccc(OCc3c(-c4c(Cl)cccc4Cl)noc3C3CC3)nc2C(F)(F)F)cc(C)c1C(=O)O` [Example 3, 4-{[(6-((5-Cyclopropyl-3-(2,6-dichlorophenyl)isoxazol-4-yl)methoxy)-2-(trifluoromethyl)pyridin-3-yl)(methyl)amino]methyl}-2,6-dimethylbenzoic acid] are 6 nM, 11.5 nM and 55 nM.
